According to US20260262639A1, “PHENYLCYCLOHEXANONE COMPOUND AND USE THEREFOR” (SUMITOMO CHEMICAL COMPANY, LIMITED, priority 2023, published 2026):

System: Pythium ultimum
Assay: Control test against seedling blight fungus (Pythium ultimum)
Assay type: cell-based
Details: 1 μL of 500 ppm DMSO solution + 150 μL PDB medium with spores, 96 well plate, 23° C., 5 days, absorbance at 550 nm
Protocol: The untreated well represents a test well in which the procedures were carried out under the same conditions as those described in the Test Example except that dimethyl sulfoxide was dispensed in place of a diluted dimethyl sulfoxide solution containing the Present compound. The Present compound was diluted with dimethyl sulfoxide to obtain a diluted solution containing 500 ppm of the compound, 1 μL of the diluted solution was dispensed into a titer plate (96 well), and thereto was then dispensed 150 μL of a potato dextrose broth medium (PDB medium) to which spores of Pythium ultimum were inoculated in advance. This plate was cultured at 23° C. for 5 days, thereby allowing Pythium ultimum to undergo proliferation, and the absorbance at 550 nm of each well of the titer plate was then measured to obtain a value as a degree of growth of Pythium ultimum. As a result, the degree of growth in the well treated with the Present compound was 50% or less relative to the degree of growth in the untreated well.

CC1CC(S(C)(=O)=O)C(O)(c2ccccc2)CC1=O (stereo not shown) [Present compound]
degree of growth relative to the degree of growth in the untreated well: ≤ 50%
